Source: US20250197368A1 (priority 2020, published 2025)
Read-outs that look alike come from different tables or passages of the source.

Experiments:
human α2β3γ2 GABAARs = assay: In vitro electrophysiological recording assay (automated patch-clamp), α2-GABAAR relative efficacy; type: cell-based; conditions: % efficacy normalised to diazepam; GABA EC10-20; concentration generally >= 100 times Ki
Protocol: The efficacy of modulators was evaluated using the automated patch-clamp platforms QPatch16 (Sophion, Copenhagen, Denmark) or SyncroPatch 384PE (Nanion, Germany).
For QPatch electrophysiology testing L(tk^−) cells stably expressing human α1β3γ2, α2β3γ2, α3β3γ2, α5β3γ2 GABAARs were used. HEK293 cells stably expressing human α1β3γ2L, α2β3γ2L, α3β3γ2L and α5β3γ2L GABAARs were used for the SyncroPatch 384PE experiments.
All experiments were carried out at room temperature (20-22° C.) using a standard whole cell procedure and physiological solutions. Gigaseals were formed upon execution of a combined suction/voltage protocol with subsequent increased suction leading to the whole-cell configuration.
The currents recorded were acquired at either 1 KHz or 2 KHz and filtered using a Bessel filter. Whole-cell currents were measured at a holding potential of-65 mV (QPatch) or −80 mV (SyncroPatch).
For QPatch experiments, the extracellular solution contained of: 145 mM NaCl, 4 mM KCl, 1 mM MgCl2, 2 mM CaCl2), 10 mM HEPES, 10 mM D-glucose (pH 7.4), and the intracellular solution consisted of: 96 mM KCl, 28 mM CsCl, 25 mM KOH, 4.3 mM CaCl2), 1.4 mM MgCl2, 10 mM EGTA, 10 mM HEPES, 3 mM MgATP (pH 7.2). The osmolarities of the extracellular and intracellular solutions were 305 and 295 mOsm respectively.
For SyncroPatch experiments, the extracellular recording solution contained: 140 mM NaCl, 4 mM KCl, 2 mM CaCl2), 1 mM MgCl2, 10 mM HEPES, 5 mM glucose (pH 7.4 with NaOH and osmolarity of c. 300-310 mOsm). The intracellular recording solution consisted of: 90 mM KCl, 50 mM KF, 1.5 mM MgCl2, 11.1 mM EGTA and 10 mM HEPES (pH 7.2 with KOH and osmolarity of c. 300 mOsm). 2 mM of NaATP was added to the intracellular solution on the day of testing.
The effects of modulators were evaluated in the presence of a submaximal GABA concentration, giving typically less than 30% activation of the response elicited by a saturating GABA concentration. To check and ensure baseline current stability before compound addition, two to five consecutive applications of GABA EC10-20 separated by wash steps were performed before compound addition. The test compound was applied 1 min at least prior to co-application with GABA EC10-20. Following a further wash step, a saturating concentration of GABA was applied at the end of each recording, allowing the accurate evaluation for each cell of the percentage baseline activation elicited by the submaximal GABA applied.
The compounds were first dissolved in DMSO as a 10 mM stock and then further diluted to the testing concentrations so that the final DMSO concentration in the extracellular recording solution was 0.1% (QPatch) or 0.2% (SyncroPatch).
The % efficacy of modulators was determined from the GABA elicited currents recorded in the presence and absence of the test compound, using the formula:
[((compound peak current−leak)−(GABA peak current-leak))/(GABA peak current−leak)]*100,
where ‘leak’ is the leak baseline current at the holding potential, ‘compound peak current’ is the current elicited by co-application of compound and GABA, and ‘GABA peak current’ is the current elicited by GABA alone at the last GABA application before compound addition. The results were presented as ‘relative efficacy’ for each compound generally at a concentration equal or higher than 100 times their determined Ki. The relative efficacy of a compound was calculated by normalising its % efficacy to the corresponding % efficacy of diazepam that was separately determined.

[1] = target: human α2β3γ2 GABAARs (benzodiazepine site) (Homo sapiens (Human), UniProt P18507+P47869); assay: In vitro radioligand binding assay ([3H]Ro15-1788 displacement), α2-GABAAR Ki
Chain of human α2β3γ2 GABAARs (benzodiazepine site) (P47869 29-451): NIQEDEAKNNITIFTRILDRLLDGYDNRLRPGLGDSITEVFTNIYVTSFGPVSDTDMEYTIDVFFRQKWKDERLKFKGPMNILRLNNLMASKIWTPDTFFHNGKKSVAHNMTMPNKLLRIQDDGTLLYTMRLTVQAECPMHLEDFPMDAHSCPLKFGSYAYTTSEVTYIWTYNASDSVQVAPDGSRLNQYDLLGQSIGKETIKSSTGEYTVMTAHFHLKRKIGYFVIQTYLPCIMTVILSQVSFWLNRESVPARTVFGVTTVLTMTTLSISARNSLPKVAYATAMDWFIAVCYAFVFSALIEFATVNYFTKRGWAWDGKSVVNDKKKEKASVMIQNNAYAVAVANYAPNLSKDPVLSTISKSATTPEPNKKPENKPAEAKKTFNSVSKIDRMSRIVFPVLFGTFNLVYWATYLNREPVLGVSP
Chain of human α2β3γ2 GABAARs (benzodiazepine site) (P28472 26-473 partner): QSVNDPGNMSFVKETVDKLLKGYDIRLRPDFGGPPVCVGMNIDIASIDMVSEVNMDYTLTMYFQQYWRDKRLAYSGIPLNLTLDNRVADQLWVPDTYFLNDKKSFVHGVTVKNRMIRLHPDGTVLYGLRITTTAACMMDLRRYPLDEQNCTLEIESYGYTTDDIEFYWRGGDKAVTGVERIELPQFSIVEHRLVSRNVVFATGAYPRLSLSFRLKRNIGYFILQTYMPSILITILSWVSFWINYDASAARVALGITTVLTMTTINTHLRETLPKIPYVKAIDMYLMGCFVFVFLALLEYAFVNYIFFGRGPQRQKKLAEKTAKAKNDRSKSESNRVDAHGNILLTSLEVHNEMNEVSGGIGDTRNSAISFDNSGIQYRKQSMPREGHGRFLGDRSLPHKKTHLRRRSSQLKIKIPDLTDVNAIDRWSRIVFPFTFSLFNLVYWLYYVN
Chain of human α2β3γ2 GABAARs (benzodiazepine site) (P18507 40-475): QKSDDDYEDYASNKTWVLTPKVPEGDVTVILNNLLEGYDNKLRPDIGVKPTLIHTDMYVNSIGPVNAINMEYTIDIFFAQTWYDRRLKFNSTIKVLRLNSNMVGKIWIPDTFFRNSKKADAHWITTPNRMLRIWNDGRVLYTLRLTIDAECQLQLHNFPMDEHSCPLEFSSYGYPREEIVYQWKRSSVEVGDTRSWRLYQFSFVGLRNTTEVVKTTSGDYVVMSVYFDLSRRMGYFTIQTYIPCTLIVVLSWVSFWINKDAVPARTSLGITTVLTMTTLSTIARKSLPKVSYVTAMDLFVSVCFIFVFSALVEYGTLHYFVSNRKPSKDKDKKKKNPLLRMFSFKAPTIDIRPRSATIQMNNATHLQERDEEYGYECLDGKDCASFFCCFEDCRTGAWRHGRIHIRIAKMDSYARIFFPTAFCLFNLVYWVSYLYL
Protocol: The affinity (Ki) of compounds for the benzodiazepine site of human recombinant GABAARs was measured by their ability to inhibit the binding of the selective benzodiazepine antagonist [^3H]Ro15-1788 ([^3H] flumazenil).
Mouse L(tk^−) cells stably expressing human α1β3γ2, α2β3γ2, α3β3γ2, α5β3γ2 GABAARs were generated by transfection of the individual subunits in the dexamethasone-inducible expression vector pMSGneo in mouse L(tk^−) cells (Hadingham et al., 1993, Mol. Pharmacol. 43:970-975 and 1993, Mol. Pharmacol. 44:1211-1218).
L(tk^−) cells stably expressing human α1β3γ2, α2β3γ2, α3β3γ2, α5β3γ2 GABAARs were maintained in DMEM F12 medium supplemented with 10% Foetal Bovine Serum, 1% Penicillin/Streptomycin and 1 mg/mL Geneticin G418 in an incubator at 37° C. with a humidified atmosphere with 5% CO2. Dexamethasone was added to the culture medium to induce GABAAR expression.
L(tk−) cells were harvested and membranes were prepared for each receptor combination in either TE buffer (10 mM Tris·CI/0.1 mM EDTA, pH 7.5) or phosphate buffer (K2PO4 10 mM, pH 7.0) (Hadingham et al. (1992) Proc. Natl. Acad. Sci. USA; 89 (14): 6378-82). Protein concentration, receptor expression and the Kd of [^3H]Ro15-1788 were determined before Ki value of the compounds were evaluated. For Kd evaluation, saturation binding curves were obtained by incubating membrane with various concentrations of [^3H]Ro15-1788 (82.5 Ci/mM), with nonspecific binding measured in the presence of 1-3 μM TP003.
For Ki evaluation, cell membranes were incubated with 4 nM [^3H]Ro15-1788 along with a range of concentrations of test compound. Nonspecific binding was determined using 1-3 μM TP003. All incubations were performed for 1 hour at 4° C. in assay buffer. The total assay volume was 0.5 mL, containing 40 μg/well α1β3γ2, 30 μg/well α2β3γ2, 40 μg/well α3β3γ2 and 30 μg/well for α5β3γ2 of membrane protein. Incubations were terminated by filtration and washing with ice cold Tris-HCl buffer (50 mM, pH=7.4) over Whatman GF/B filters and the radioactivity of the filters was measured using liquid scintillation counting.
The % inhibition of [^3H]Ro15-1788 binding was plotted as a function of compound concentration and the IC50 calculated. From the IC50, the affinity (Ki) was calculated using the method of Cheng and Prusoff using the Kd values obtained for [^3H]Ro15-1788.

SMILES: CCCNC(=O)c1c(N)c2cccc(-c3cnccc3OCC)c2[nH]c1=O [Example 19, 4-Amino-8-(4-ethoxypyridin-3-yl)-2-oxo-N-propyl-1,2-dihydroquinoline-3-carboxamide]
- α2-GABAAR Relative Efficacy (vs. Diazepam) (human α2β3γ2 GABAARs): 0.23
- Ki [1]: 21.5 nM

SMILES: CCCNC(=O)c1c(N)c2cccc(-c3cnccc3OC(C)C)c2[nH]c1=O [Example 20, 4-Amino-8-(4-isopropoxypyridin-3-yl)-2-oxo-N-propyl-1,2-dihydroquinoline-3-carboxamide]
- α2-GABAAR Relative Efficacy (vs. Diazepam) (human α2β3γ2 GABAARs): 0.16
- Ki ([1]; L(tk-) cell membranes, 4 nM [3H]Ro15-1788, read-out: α2-GABAAR Ki): 245 nM

SMILES: CCCNC(=O)c1c(N)c2cccc(-c3cnccc3COC)c2[nH]c1=O [Example 21, 4-Amino-8-(4-(methoxymethyl)pyridin-3-yl)-2-oxo-N-propyl-1,2-dihydroquinoline-3-carboxamide]
- α2-GABAAR Relative Efficacy (vs. Diazepam) (human α2β3γ2 GABAARs): 0.12
- Ki [1]: 29.8 nM

SMILES: CCCNC(=O)c1c(N)c2cccc(-c3cncc(F)c3)c2[nH]c1=O [Example 22, 4-Amino-8-(5-fluoro-3-pyridyl)-2-oxo-N-propyl-1H-quinoline-3-carboxamide]
- α2-GABAAR Relative Efficacy (vs. Diazepam) (human α2β3γ2 GABAARs): 0.19
- Ki [1]: 13.6 nM

SMILES: CCCNC(=O)c1c(N)c2cccc(-c3cncc(OC)c3C)c2[nH]c1=O [Example 24, 4-Amino-8-(5-methoxy-4-methylpyridin-3-yl)-2-oxo-N-propyl-1,2-dihydroquinoline-3-carboxamide]
- α2-GABAAR Relative Efficacy (vs. Diazepam) (human α2β3γ2 GABAARs): 0.21
- Ki [1]: 4.11 nM

SMILES: CCCNC(=O)c1c(N)c2cccc(-c3cncc(OCC)c3)c2[nH]c1=O [Example 26, 4-Amino-8-(5-ethoxypyridin-3-yl)-2-oxo-N-propyl-1,2-dihydroquinoline-3-carboxamide]
- α2-GABAAR Relative Efficacy (vs. Diazepam) (human α2β3γ2 GABAARs): 0.15
- Ki [1]: 5.58 nM

SMILES: CCCNC(=O)c1c(N)c2cccc(-c3cncc(OC4CC4)c3)c2[nH]c1=O [Example 28, 4-Amino-8-(5-cyclopropoxypyridin-3-yl)-2-oxo-N-propyl-1,2-dihydroquinoline-3-carboxamide]
- α2-GABAAR Relative Efficacy (vs. Diazepam) (human α2β3γ2 GABAARs): 0.2
- Ki [1]: 9.07 nM

SMILES: CCCNC(=O)c1c(N)c2cccc(-c3cncc(OCc4ccc(F)cn4)c3)c2[nH]c1=O [Example 29, 4-Amino-8-(5-((5-fluoropyridin-2-yl)methoxy)pyridin-3-yl)-2-oxo-N-propyl-1,2-dihydroquinoline-3-carboxamide]
- α2-GABAAR Relative Efficacy (vs. Diazepam) (human α2β3γ2 GABAARs): 0.22
- Ki [1]: 6.66 nM

SMILES: CCCNC(=O)c1c(N)c2cccc(-c3ccc(CO)nc3)c2[nH]c1=O [Example 30, 4-Amino-8-[6-(hydroxymethyl)-3-pyridyl]-2-oxo-N-propyl-1H-quinoline-3-carboxamide]
- α2-GABAAR Relative Efficacy (vs. Diazepam) (human α2β3γ2 GABAARs): 0.43
- Ki [1]: 4.76 nM

SMILES: CCCNC(=O)c1c(N)c2cccc(-c3ccncc3)c2[nH]c1=O [Example 31, 4-Amino-2-oxo-N-propyl-8-(pyridin-4-yl)-1,2-dihydroquinoline-3-carboxamide]
- α2-GABAAR Relative Efficacy (vs. Diazepam) (human α2β3γ2 GABAARs): 0.24
- Ki [1]: 3.28 nM

SMILES: CCCNC(=O)c1c(N)c2cccc(-c3cc(C)ncc3F)c2[nH]c1=O [Example 33, 4-Amino-8-(5-fluoro-2-methyl-4-pyridyl)-2-oxo-N-propyl-1H-quinoline-3-carboxamide]
- α2-GABAAR Relative Efficacy (vs. Diazepam) (human α2β3γ2 GABAARs): 0.39
- Ki [1]: 0.67 nM

SMILES: CCCNC(=O)c1c(N)c2cccc(-c3cc(OCC)ncc3F)c2[nH]c1=O [Example 35, 4-Amino-8-(2-ethoxy-5-fluoropyridin-4-yl)-2-oxo-N-propyl-1,2-dihydroquinoline-3-carboxamide]
- α2-GABAAR Relative Efficacy (vs. Diazepam) (human α2β3γ2 GABAARs): 0.52
- Ki [1]: 2.45 nM

SMILES: CCCNC(=O)c1c(N)c2cccc(-c3ccncn3)c2[nH]c1=O [Example 36, 4-Amino-2-oxo-N-propyl-8-pyrimidin-4-yl-1H-quinoline-3-carboxamide]
- α2-GABAAR Relative Efficacy (vs. Diazepam) (human α2β3γ2 GABAARs): 0.05
- Ki [1]: 3.69 nM

SMILES: CCCNC(=O)c1c(N)c2cccc(-c3ncncc3OC)c2[nH]c1=O [Example 37, 4-Amino-8-(5-methoxypyrimidin-4-yl)-2-oxo-N-propyl-1H-quinoline-3-carboxamide]
- α2-GABAAR Relative Efficacy (vs. Diazepam) (human α2β3γ2 GABAARs): 0.78
- Ki [1]: 7.55 nM

SMILES: CCCNC(=O)c1c(N)c2cccc(-c3ccnc(C)n3)c2[nH]c1=O [Example 38, 4-Amino-8-(2-methylpyrimidin-4-yl)-2-oxo-N-propyl-1,2-dihydroquinoline-3-carboxamide]
- α2-GABAAR Relative Efficacy (vs. Diazepam) (human α2β3γ2 GABAARs): 0.18
- Ki [1]: 1.09 nM

SMILES: CCCNC(=O)c1c(N)c2cccc(-c3nc(C)ncc3C#N)c2[nH]c1=O [Example 39, 4-Amino-8-(5-cyano-2-methyl-pyrimidin-4-yl)-2-oxo-N-propyl-1H-quinoline-3-carboxamide]
- α2-GABAAR Relative Efficacy (vs. Diazepam) (human α2β3γ2 GABAARs): −0.06
- Ki [1]: 9.31 nM

SMILES: CCCNC(=O)c1c(N)c2cccc(-c3nc(N)ncc3F)c2[nH]c1=O [Example 41, 4-Amino-8-(2-amino-5-fluoropyrimidin-4-yl)-2-oxo-N-propyl-1,2-dihydroquinoline-3-carboxamide]
- α2-GABAAR Relative Efficacy (vs. Diazepam) (human α2β3γ2 GABAARs): 0.13
- Ki [1]: 0.4 nM

SMILES: CCCNC(=O)c1c(N)c2cccc(-c3nc(OCCOC)ncc3F)c2[nH]c1=O [Example 43, 4-Amino-8-(5-fluoro-2-(2-methoxyethoxy)pyrimidin-4-yl)-2-oxo-N-propyl-1,2-dihydroquinoline-3-carboxamide]
- α2-GABAAR Relative Efficacy (vs. Diazepam) (human α2β3γ2 GABAARs): 0.14
- Ki [1]: 1.47 nM

SMILES: CCCNC(=O)c1c(N)c2cccc(-c3cncnc3OC)c2[nH]c1=O [Example 44, 4-Amino-8-(4-methoxypyrimidin-5-yl)-2-oxo-N-propyl-1H-quinoline-3-carboxamide]
- α2-GABAAR Relative Efficacy (vs. Diazepam) (human α2β3γ2 GABAARs): 0.30
- Ki [1]: 18.6 nM

SMILES: CCCNC(=O)c1c(N)c2cccc(-c3cnccn3)c2[nH]c1=O [Example 45, 4-Amino-2-oxo-N-propyl-8-(pyrazin-2-yl)-1,2-dihydroquinoline-3-carboxamide]
- α2-GABAAR Relative Efficacy (vs. Diazepam) (human α2β3γ2 GABAARs): 0.11
- Ki [1]: 5.04 nM
